In one assay the target is T1, TRPM4 (Mus musculus, UniProt Q7TN37).
T1 construct: endogenous in cells; host or cells: mIMCD-3 cell line with TRPM3 knocked out by CRISPR/Cas9; excised primary cilia
The assay is described as follows: TRPM4 current in cilia of TRPM3-knockout mIMCD-3 cells. The format is biochemical, murine. The conditions noted are these: 2 mM cytoplasmic MgATP, cilia lacking TRPM3. From the text:
The large-conductance ciliary channel is not detectable unless TRPP2 is expressed. Given the pharmacological similarities between the ciliary TRPP2-dependent channel and TRPM3, we investigated whether the ciliary channel also requires expression of TRPM3. We used an mIMCD-3 cell line in which TRPM3 was knocked out by CRISPR/Cas9 genome editing. In electrical recordings from the primary cilia of cells lacking TRPM3, the large-conductance channel was never seen (n=45, Table 1, TRPM3 KO). […] Knocking out TRPM3 had no effect on the activity of another ciliary channel, TRPM4. In 17 cilia tested from TRPM3-knockout cells, 1 mM cytoplasmic Ca^2+ on average activated a current at +100 mV of 47±7 pA. […] As in cilia of wild-type cells, 2 mM cytoplasmic MgATP blocked the TRPM4 current. […]
All recordings were done under voltage clamp at room temperature (24° C.). […] Total mean channel current was measured as the mean current minus the current attributed to leak channels. The latter was determined from an amplitude histogram. […] Channel open probabilities were determined from amplitude histograms and are reported only when the number of channels in the membrane was unambiguous. The presence or absence of active TRPP2 channels was assessed with the cilium or patch exposed to 3 μM cytoplasmic Ca^2+ and the voltage clamped to +40 mV. […]

Assay [1] deals with T2, ciliary TRPP2-dependent channel (Mus musculus, UniProt J9SQF3).
T2 construct: Electrical recordings were made from primary cilia of mIMCD-3 cells; host or cells: mIMCD-3 cells, excised primary cilia (inside-out) or apical membrane patches
The assay is described as follows: Electrical recording of the large-conductance channel in single excised primary cilia of mIMCD-3 cells. The format is biochemical, murine. The arrangement: mean single-channel conductance (slope) / extrapolated reversal potential (x-intercept): dose or concentration left out as unconfirmed. The conditions noted are these: for increase of mean channel current (factor): +60 mV. As to the method:
(§1) Electrical recordings were made from primary cilia of mIMCD-3 cells. mIMCD-3 cells (murine epithelial cells from the renal inner medullary collecting duct, (CRL-2123, American Type Culture Collection, Manassas, Va., USA) were cultured on beads that were free to move in the recording chamber. Suction was applied to a recording pipette so that a single primary cilium entered the pipette. If a resistance of at least 1 GΩ formed between the membrane and the pipette, the cilium was excised from the cell. This left the cilium inside the recording pipette in the inside-out configuration. The pipette containing the cilium could then be transferred among different solutions that bathed the cytoplasmic face of the membrane. In one set of experiments (FIGS. 1 and 2), the external solution was replaced by perfusing the pipette (FIG. 14).
During recording, the beads coated with cells were stored in a standard external solution containing (in mM) NaCl 140, KCl 5, CaCl2 2, MgCl2 2, sodium pyruvate 2, HEPES 5, and D-glucose 9.4, adjusted to pH 7.4 with NaOH. The recording pipettes also contained this solution except as noted. […] The standard cytoplasmic solution contained (in mM) KCl 140, NaCl 5, CaCl2 0.7, MgCl2 2, HEPES 5, BAPTA 2, and D-glucose 5, adjusted to pH 7.4 with KOH. This solution contained 0.1 μM free Ca^2+. To make a cytoplasmic solution with 3 μM free Ca^2+, BAPTA was replaced with dibromoBAPTA, and the total CaCl2 was increased to 1.4 mM. In buffered solutions, concentrations of free Ca^2+ were estimated by the method of Bers (see Bers D M: “A simple method for the accurate determination of free [Ca] in Ca-EGTA solutions” Am J Physiol Cell Physiol. 1982; 242: C404-C408), which is herein incorporated by reference in its entirety.
All recordings were done under voltage clamp at room temperature (24° C.). Equipment, software, and technical details, including corrections for liquid junction potentials, were conducted as described in the article: Kleene S J, Kleene N K. “The native TRPP2-dependent channel of murine renal primary cilia” Am J Physiol Renal Physiol. 2017; 312: F96-F108, which is herein incorporated by reference in its entirety. During acquisition, currents were low-pass filtered at 2 kHz and digitized at 5 kHz. Total mean channel current was measured as the mean current minus the current attributed to leak channels. The latter was determined from an amplitude histogram. […] Channel open probabilities were determined from amplitude histograms and are reported only when the number of channels in the membrane was unambiguous. The presence or absence of active TRPP2 channels was assessed with the cilium or patch exposed to 3 μM cytoplasmic Ca^2+ and the voltage clamped to +40 mV. If no large-conductance channels were seen to open within 2 min, active TRPP2 channels were judged to be absent.

Another assay addresses T3, TRPP2-dependent channels (Mus musculus, UniProt J9SQF3).
T3 construct: Electrical recordings were made from primary cilia of mIMCD-3 cells; host or cells: mIMCD-3 cells, excised primary cilia (inside-out) or apical membrane patches
The assay is described as follows: Incidences of TRPP2-dependent channels in apical and ciliary membranes. The format is biochemical, murine. Particulars: for incidence of TRPP2-dependent channels: PS 75 or 230 μM external, 3 μM cytoplasmic Ca2+, +40 mV. On the procedure: In Table 1, the presence or absence of active TRPP2 channels was assessed with the cilium or apical membrane patch exposed to 3 μM cytoplasmic Ca^2+ and the voltage clamped to +40 mV. If no large-conductance channels were seen to open within 2 min, active TRPP2 channels were judged to be absent. […] PS, pregnenolone sulfate; KO, knockout; ND, not determined.
as §1
All recordings were done under voltage clamp at room temperature (24° C.). Equipment, software, and technical details, including corrections for liquid junction potentials, were conducted as described in the article: Kleene S J, Kleene N K. “The native TRPP2-dependent channel of murine renal primary cilia” Am J Physiol Renal Physiol. 2017; 312: F96-F108, which is herein incorporated by reference in its entirety. During acquisition, currents were low-pass filtered at 2 kHz and digitized at 5 kHz. Total mean channel current was measured as the mean current minus the current attributed to leak channels. The latter was determined from an amplitude histogram. In each cilium reported, the number of large-conductance channels was between 1 and 5. Channel open probabilities were determined from amplitude histograms and are reported only when the number of channels in the membrane was unambiguous. The presence or absence of active TRPP2 channels was assessed with the cilium or patch exposed to 3 μM cytoplasmic Ca^2+ and the voltage clamped to +40 mV. If no large-conductance channels were seen to open within 2 min, active TRPP2 channels were judged to be absent. These cilia have a second Ca^2+-activated channel, TRPM4, but it is not activated by the concentrations of cytoplasmic Ca^2+ used in this study ([…] The half-maximal effect of Ca^2+ on ciliary TRPM4 occurs at 646 μM at +100 mV and 1166 μM at −100 mV.

Another assay deals with mIMCD-3 cells. The assay is described as follows: Measuring intracellular calcium (Fura2-AM, F340/F380) in mIMCD-3 cells. Particulars: 200 μM pregnenolone sulfate in 0.4% DMSO. The format is cell-based, murine. On the procedure: Wild-type (WT) mIMCD-3 cells and a clone of mIMCD-3 cells that lacked TRPP2 (TRPP2 KO) were grown to confluence in a 96-well plate and loaded with Fura2-AM, a ratiometric Ca^2+ indicator dye. The ratio of the fluorescence (after background subtraction) at 340 nm and 380 nm (F340/F380) correlates with the cytoplasmic Ca^2+ concentration. […] Unlike in the electrophysiological ciliary recordings, here the apical surface of the cell, including the cilium, is exposed to the pregnenolone sulfate. […] Responses from individual wells are shown as black circles. The experiment was done with two different passages for each cell line for a total of 19 wells per condition.
Wild-type mIMCD-3 cells and one mIMCD-3 clone with TRPP2 knocked out were grown to confluence in a 96-well plate. Standard external solution with 1 mM probenecid was used for all solutions. […] The ratio of the fluorescence (after background subtraction) at 340 nm and 380 nm (F340/F380) indicates the cytoplasmic Ca^2+ concentration and was measured on a BioTek Synergy 4 plate reader. Background fluorescence (wells with cells, 0.01% pluronic acid, and 0.1% DMSO in standard external solution, but no dye) was subtracted from the F340 and F380 readings. […]
For orientation: A change in cytosolic calcium serves as a functional read-out for many receptors and channels.

T3 sequence (J9SQF3 whole entry): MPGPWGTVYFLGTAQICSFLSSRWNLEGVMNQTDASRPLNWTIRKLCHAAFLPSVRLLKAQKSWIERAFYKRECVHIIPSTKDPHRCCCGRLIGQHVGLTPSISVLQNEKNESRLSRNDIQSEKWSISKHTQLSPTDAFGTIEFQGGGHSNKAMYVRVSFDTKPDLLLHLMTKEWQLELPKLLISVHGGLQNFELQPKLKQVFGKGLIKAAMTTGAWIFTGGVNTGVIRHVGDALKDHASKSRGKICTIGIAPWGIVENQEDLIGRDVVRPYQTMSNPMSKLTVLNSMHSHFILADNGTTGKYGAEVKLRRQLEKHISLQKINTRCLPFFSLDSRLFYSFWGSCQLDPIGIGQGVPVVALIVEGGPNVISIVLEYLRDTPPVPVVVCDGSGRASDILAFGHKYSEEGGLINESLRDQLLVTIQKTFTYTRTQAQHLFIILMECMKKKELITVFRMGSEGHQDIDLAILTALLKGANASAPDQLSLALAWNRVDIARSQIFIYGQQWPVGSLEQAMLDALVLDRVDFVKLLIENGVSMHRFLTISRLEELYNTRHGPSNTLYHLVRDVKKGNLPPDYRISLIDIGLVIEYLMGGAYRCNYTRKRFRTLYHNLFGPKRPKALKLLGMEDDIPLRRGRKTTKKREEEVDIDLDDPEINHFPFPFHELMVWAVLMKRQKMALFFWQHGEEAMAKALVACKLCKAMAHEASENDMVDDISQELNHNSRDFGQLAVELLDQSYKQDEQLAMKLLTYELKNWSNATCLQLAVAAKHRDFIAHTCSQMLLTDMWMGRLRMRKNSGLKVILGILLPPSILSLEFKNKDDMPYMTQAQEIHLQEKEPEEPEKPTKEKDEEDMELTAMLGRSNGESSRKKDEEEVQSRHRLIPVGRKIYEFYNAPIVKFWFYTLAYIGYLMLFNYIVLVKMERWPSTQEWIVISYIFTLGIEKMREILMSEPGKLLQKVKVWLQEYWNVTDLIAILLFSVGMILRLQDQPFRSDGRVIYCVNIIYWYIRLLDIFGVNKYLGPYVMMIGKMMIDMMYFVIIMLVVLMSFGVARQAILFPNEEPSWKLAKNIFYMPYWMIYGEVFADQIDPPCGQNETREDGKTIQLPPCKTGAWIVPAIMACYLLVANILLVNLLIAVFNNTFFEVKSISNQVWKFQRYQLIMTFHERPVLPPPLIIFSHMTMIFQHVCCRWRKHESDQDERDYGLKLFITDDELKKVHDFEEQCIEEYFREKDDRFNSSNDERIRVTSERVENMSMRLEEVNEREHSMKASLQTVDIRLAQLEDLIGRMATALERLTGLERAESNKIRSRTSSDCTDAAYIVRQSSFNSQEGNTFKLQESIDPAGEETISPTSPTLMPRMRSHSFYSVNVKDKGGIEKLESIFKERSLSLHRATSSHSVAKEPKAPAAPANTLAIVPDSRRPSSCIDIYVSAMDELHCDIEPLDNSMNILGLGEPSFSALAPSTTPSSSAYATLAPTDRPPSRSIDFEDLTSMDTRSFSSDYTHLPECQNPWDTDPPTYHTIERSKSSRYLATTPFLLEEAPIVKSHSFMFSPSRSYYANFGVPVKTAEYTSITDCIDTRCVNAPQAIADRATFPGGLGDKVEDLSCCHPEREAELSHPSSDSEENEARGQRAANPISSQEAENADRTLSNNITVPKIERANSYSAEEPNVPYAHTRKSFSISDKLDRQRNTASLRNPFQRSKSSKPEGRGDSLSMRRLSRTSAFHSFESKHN
T2 sequence (J9SQF3 whole entry): as above
T1 sequence (Q7TN37 whole entry): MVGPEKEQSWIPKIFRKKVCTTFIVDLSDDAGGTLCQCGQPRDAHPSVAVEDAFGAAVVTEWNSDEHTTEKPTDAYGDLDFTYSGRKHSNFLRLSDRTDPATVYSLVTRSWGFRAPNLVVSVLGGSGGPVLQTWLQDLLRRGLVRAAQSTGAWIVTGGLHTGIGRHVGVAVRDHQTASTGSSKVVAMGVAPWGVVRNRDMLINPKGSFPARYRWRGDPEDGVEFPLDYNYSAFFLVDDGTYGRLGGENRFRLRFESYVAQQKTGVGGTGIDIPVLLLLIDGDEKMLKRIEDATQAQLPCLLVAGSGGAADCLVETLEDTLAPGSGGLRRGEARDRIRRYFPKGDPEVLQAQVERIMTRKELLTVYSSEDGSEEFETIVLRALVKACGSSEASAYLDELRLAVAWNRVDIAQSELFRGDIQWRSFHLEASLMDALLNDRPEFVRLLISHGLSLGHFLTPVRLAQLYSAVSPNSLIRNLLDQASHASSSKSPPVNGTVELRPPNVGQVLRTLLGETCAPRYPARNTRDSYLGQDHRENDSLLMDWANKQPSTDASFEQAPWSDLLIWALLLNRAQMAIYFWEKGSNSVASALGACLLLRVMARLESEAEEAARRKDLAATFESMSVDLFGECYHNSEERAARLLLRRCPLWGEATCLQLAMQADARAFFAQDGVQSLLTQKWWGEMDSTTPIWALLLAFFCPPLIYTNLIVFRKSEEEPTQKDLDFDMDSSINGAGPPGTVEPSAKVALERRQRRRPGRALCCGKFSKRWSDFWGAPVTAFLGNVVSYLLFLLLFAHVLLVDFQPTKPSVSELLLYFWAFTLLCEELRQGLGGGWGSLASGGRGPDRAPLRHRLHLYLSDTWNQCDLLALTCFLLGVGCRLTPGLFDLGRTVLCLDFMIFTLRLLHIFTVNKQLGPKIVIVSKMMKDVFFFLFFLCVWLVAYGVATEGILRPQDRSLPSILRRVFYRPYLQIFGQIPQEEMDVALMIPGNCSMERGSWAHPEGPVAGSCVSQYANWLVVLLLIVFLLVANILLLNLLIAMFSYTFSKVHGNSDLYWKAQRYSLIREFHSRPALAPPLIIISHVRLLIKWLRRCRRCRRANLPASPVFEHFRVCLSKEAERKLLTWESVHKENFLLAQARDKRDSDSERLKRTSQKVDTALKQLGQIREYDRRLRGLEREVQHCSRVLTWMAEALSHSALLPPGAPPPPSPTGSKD

Regarding `Nc1ncnc2c1ncn2[C@@H]1O[C@H](COP(=O)(O)OP(=O)([O-])OP(=O)([O-])O)[C@@H](O)[C@H]1O.[Mg+2]` [MgATP], the “fraction of TRPM4 current remaining after addition of MgATP” value on TRPM4 is given as 0.34±0.03.

Pregnenolone sulfate: the “k (Boltzmann slope factor)” value is listed as 13.5 ± 1.0 mV in assay [1] (1 μM external PS, 3 μM cytoplasmic Ca2+); 18.3 ± 1.5 mV in assay [1] (10 μM external PS, 3 μM cytoplasmic Ca2+); 14.8 ± 0.9 mV in assay [1] (75 μM external PS, KCl-based external solution, 3 μM cytoplasmic Ca2+). In addition, the “V1/2 (potential at which open probability is 0.5)” value in assay [1] (1 μM external PS, 3 μM cytoplasmic Ca2+, Vm −40 to +60 mV) is listed as −5.6 ± 1.1 mV; in assay [1] (10 μM external PS, 3 μM cytoplasmic Ca2+, Vm −40 to +50 mV), −21.4 ± 1.4 mV; in assay [1] (75 μM external PS, KCl-based external solution, 3 μM cytoplasmic Ca2+, Vm −140 to −20 mV), −67.2 ± 1.0 mV. Also, the “channel activation at 230 μM compared with 75 μM” value in assay [1] (3 μM cytoplasmic Ca2+, FIG. 7) was “no more effective”. Also, the “increase of mean channel current (factor)” value in assay [1] ([…] μM cytoplasmic pregnenolone sulfate, 0.1 μM cytoplasmic Ca2+) is recorded as 3.6±0.7; in assay [1] ([…] μM external (pipette) pregnenolone sulfate, 0.1 μM cytoplasmic free Ca2+), 30±12. Besides, the “extrapolated reversal potential (x-intercept)” value in assay [1] ([…] μM external pregnenolone sulfate, standard external solution) was −67±2 mV. Moreover, the “mean single-channel conductance (slope)” value in assay [1] ([…] μM external pregnenolone sulfate, standard external solution, fit −40 to +50 mV) is given as 92±3 pS. Further, in assay [1] (after 75 μM external pregnenolone sulfate, −10 mV, free Ca2+ 3), the “fraction of the mean channel current remaining after replacing external solution with one lacking pregnenolone sulfate” value was 0.14±0.08. Moreover, in assay [1] (external pregnenolone sulfate up to 75 μM, 0.1 μM cytoplasmic Ca2+, FIG. 5), the “channel activity (open probability)” value is listed as “significantly increased the channel activity”. In addition, the “incidence of TRPP2-dependent channels” value is given as 0/34 on TRPP2-dependent channels (apical membrane, TRPM3 KO); 0/30 at TRPP2-dependent channels (apical membrane, TRPP2 KO); 3/57 at TRPP2-dependent channels (apical membrane, wild type); 0/28 on TRPP2-dependent channels (ciliary membrane, TRPP2 KO); 77/259 on TRPP2-dependent channels (ciliary membrane, wild type). The “cilia in which channels were observed” value on TRPP2-dependent channels (wild type cilia exposed to pregnenolone sulfate) amounted to 30%. In addition, the “cytoplasmic Ca2+ response (Post Stim. F340/F380 − Pre Stim. F340/F380)” value with mIMCD-3 cells (TRPP2 KO mIMCD-3 cells, compared with wild-type) is “smaller response”; in the assay with mIMCD-3 cells (wild-type mIMCD-3 cells) it was “increased cytoplasmic Ca^2+”.

Values taken from patent US20210299144A1, “USE OF PR[…] TO REDUCE CYST FORMATION IN KIDNEY” (priority 2019, published 2021).
